{"source": "paper PMC11801715", "about": "“Activating PKC-ε induces HIV expression with improved tolerability” (PLOS Pathogens, 2025)", "key": {"HIV p24": {"system": "HIV p24", "test": "HIV p24 digital immunoassay in culture supernatants", "format": "cell-based, HIV-1", "conditions": "Human immunodeficiency virus 1, CD4+ T, read-out: p24 EC50", "procedure": "The fully automated Quanterix HD-X analyzer for single molecule detection was utilized to measure HIV p24 levels in culture supernatants (stored frozen at –80°C until use). Upon thaw, Triton X-100 was added to a final concentration of 1% to culture supernatants, incubated for 1 hour at room temperature before analysis on the same day. An in-house standard using purified HIV p24 protein was utilized in place of the standard provided in the p24 Simoa kit (Quanterix, catalog 102215). Briefly, p24 protein purchased from Advanced Biotechnologies, catalog 14-101-050, was reconstituted to 200 ng/mL in complete RPMI and stored at –80 in smaller aliquots. Standard curve was made in a […] dilution series from 40000 to 1.8 fg/ml in complete RPMI with 1% Triton X-100. All other assay reagents and assay reaction conditions followed the manufacturer’s protocol. p24 concentration in experimental samples was calculated based on a p24 calibration curve with 4-parameter curve fitting."}, "Sprague Dawley rats": {"system": "Sprague Dawley rats", "test": "In vivo rat study: tolerability, clinical pathology, histopathology", "procedure": "Wild-type male Sprague Dawley (Hsd: Sprague Dawley SD) rats (8–15 weeks old) were sourced from the Covance stock colony for conduct of in vivo studies at Covance Laboratories Inc. (Madison, Wisconsin, USA). Rats were administered a single dose of vehicle control (n = 3), or 0.1, 0.3, 1, or 3 mg/kg C-232A (n = 6), or 10 mg/kg C-233 by intravenous infusion over 30 minutes. Blood samples were collected through 24 hours postdose. Samples for PK measurement of C-232A concentration were processed to plasma and shipped to Gilead Sciences (Foster City, California, USA). Samples were analyzed at Covance Laboratories for hematology and clinical chemistry panels. At unscheduled necropsy (3 mg/kg C-232A), tissues were preserved in 10% neutral-buffered formalin, embedded in paraffin, mounted on slides, and stained with hematoxylin and eosin. Tissues were then evaluated independently (Experimental Pathology Laboratories, Inc)."}, "PKC-η": {"biological_target": "PKC-η (Homo sapiens, UniProt P24723)", "sequence (P24723 whole entry, the tested form may be a part, canonical isoform)": "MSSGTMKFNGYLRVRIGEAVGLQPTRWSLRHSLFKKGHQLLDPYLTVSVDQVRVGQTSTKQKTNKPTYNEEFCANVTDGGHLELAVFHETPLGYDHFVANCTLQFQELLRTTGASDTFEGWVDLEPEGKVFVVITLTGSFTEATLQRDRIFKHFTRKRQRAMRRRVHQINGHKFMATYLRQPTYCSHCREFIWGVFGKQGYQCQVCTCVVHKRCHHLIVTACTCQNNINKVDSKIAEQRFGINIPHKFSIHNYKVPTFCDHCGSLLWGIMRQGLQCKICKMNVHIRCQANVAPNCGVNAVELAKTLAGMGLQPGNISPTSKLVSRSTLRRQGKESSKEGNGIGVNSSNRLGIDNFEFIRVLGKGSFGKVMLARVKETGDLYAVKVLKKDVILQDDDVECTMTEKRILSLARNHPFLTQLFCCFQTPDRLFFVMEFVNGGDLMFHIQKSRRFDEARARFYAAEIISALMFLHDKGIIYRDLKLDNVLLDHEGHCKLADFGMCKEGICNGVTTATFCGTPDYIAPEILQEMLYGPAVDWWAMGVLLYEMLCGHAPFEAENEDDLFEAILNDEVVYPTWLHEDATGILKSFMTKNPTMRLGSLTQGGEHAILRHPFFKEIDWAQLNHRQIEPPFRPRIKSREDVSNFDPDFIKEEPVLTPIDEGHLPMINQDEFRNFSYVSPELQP", "test": "PKC isoform translocation in A549-tGFP cells", "format": "cell-based", "design": "host or cells: A549", "conditions": "for EC50: A549-tGFP cells, 60 minutes; for ε selectivity, PKC-η: EC50 of PKC-η divided by EC50 of PKC-ε", "procedure": "A description of this effort is reported elsewhere.\n(§1) Cellular translocation of PKC isoforms upon activation was determined in 8 A549 cell lines, each expressing a single PKC isoform fused to tGFP (PhenoVista Biosciences). Cells were plated in 384-well plates (80 μL/well) at 10^5 cells/mL in RPMI with 10% FBS and rested overnight. PKC agonist(s) were serially diluted at 1:3 steps in DMSO and added to the cells. After 60 minutes in an incubator at 37 °C, 5% CO2, cells were stained with Hoechst-33342 and fixed with 2% paraformaldehyde for 30 minutes at 4 °C. Cells were then stained with wheat germ agglutinin conjugated to AlexaFluor647 (WGA-647) for 10 minutes at 4 °C, washed to remove excess dye and imaged with Cellomics Array Scan (Thermo Fisher) at room temperature (RT). Images were analyzed using Cellomics automated image analysis algorithm. Plasma membrane translocation was quantified using the ratio between the average fluorescence in the areas at the cell edge defined by WGA-647 and the cytoplasm region."}, "[1]": {"system": "platelets (CD62P+) and CD4+ T cells (CD69+) in whole blood", "test": "In vitro whole blood platelet and CD4+ T-cell activation assay", "format": "cell-based, human", "conditions": "for CD62P EC50/CD69 EC50 ratio Geomean: whole blood from healthy donors, platelets to CD4+ T cells", "procedure": "We developed a novel human whole blood assay to determine whether other PKC agonists also activate platelets at the same concentrations that are required to activate CD4^+ T cells. Platelet activation was assessed by CD62P (P-selectin), which traffics to the cell surface upon activation and α-granule release. CD4^+ T-cell activation was assessed by CD69 upregulation (Fig 7A).\nWhole blood was drawn into sodium citrate tubes using a 21-gauge needle. To prevent potential interference from tissue thromboplastin released during venipuncture, which could affect the accuracy of coagulation testing, the first 2 mL of blood drawn was discarded. PKC agonist molecules were dispensed in a dilution series into 80 μL of blood per well in a flat-bottom 96-well plate and mixed gently. Care was taken not to introduce any mechanical stress-related activation of platelets. […] The remaining 72 μL of blood in the first plate was incubated for 1 additional hour and stained with anti-human CD3 (UCHT1), CD4 (SK3), and CD69 (FN50) (30 minutes in the dark). Red blood cell lysis and fixing was done using BD lyse/fix solution. Stained cells were acquired on BD LSR Fortessa II after washing. […] EC50 values for platelet and CD4 T-cell activation for each agonist was obtained by nonlinear regression curve fit using GraphPad Prism version 9.3.0."}, "PKC-ε": {"biological_target": "T1, PKC-ε (Homo sapiens, UniProt Q02156)", "T1 sequence (Q02156 1-737)": "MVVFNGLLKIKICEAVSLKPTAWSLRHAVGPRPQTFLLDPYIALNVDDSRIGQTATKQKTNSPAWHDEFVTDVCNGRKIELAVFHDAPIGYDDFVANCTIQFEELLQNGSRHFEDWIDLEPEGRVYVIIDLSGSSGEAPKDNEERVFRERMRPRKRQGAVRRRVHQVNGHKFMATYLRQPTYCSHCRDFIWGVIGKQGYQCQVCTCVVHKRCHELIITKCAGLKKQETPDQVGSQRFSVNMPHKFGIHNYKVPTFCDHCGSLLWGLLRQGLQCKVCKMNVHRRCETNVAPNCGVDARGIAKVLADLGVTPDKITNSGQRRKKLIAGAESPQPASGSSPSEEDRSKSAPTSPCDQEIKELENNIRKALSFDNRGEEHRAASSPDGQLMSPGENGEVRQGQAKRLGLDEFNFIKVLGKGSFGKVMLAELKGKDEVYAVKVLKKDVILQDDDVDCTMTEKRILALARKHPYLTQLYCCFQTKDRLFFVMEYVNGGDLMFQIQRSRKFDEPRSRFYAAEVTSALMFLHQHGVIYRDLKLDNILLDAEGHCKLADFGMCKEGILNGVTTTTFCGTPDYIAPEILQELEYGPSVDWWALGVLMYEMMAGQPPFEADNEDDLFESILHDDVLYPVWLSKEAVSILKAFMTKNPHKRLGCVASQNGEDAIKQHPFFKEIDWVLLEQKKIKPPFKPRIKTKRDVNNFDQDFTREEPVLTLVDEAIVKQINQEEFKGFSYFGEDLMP", "test": "PKC isoform translocation in A549-tGFP cells", "format": "cell-based", "design": "host or cells: A549", "conditions": "for EC50: A549-tGFP cells, 60 minutes; for ε selectivity, PKC-ε: EC50 of PKC-ε divided by EC50 of PKC-ε", "procedure": "Using these findings we embarked on new designs for DAG-lactones with additional substituents from the ester moiety in combination with a few olefin substituents. A description of this effort is reported elsewhere.\nas §1"}}, "note": "Where “and” joins values, the source holds several entries; their conditions need not be identical. Equal values may be shown once.", "data": [{"smiles": "Cc1ccc(C#Cc2ccc(C(=O)OCC3(CO)Cc4c(-c5ccccc5)ccnc4O3)cc2)cc1", "note": "(centres unmarked) [C-233]", "values": [{"measurement": "EC50", "setting": "HIV p24", "value": 428, "unit": "nM"}, {"measurement": "platelets and mean platelet volume", "setting": "Sprague Dawley rats; 10 mg/kg", "value": "without any significant depletion of platelets or increased mean platelet volume"}, {"measurement": "adverse events", "setting": "Sprague Dawley rats; 10 mg/kg, single IV infusion", "value": "no adverse events were observed"}, {"measurement": "EC50", "setting": "PKC-η", "value": 1100, "unit": "nM"}, {"measurement": "ε selectivity, PKC-η", "setting": "PKC-η", "value": 5}, {"measurement": "more potent for T-cell activation relative to platelet activation", "setting": "[1]; whole blood", "value": 5, "unit": "fold"}, {"measurement": "CD62P EC50/CD69 EC50 ratio Geomean", "setting": "[1]", "value": 5.1}, {"measurement": "improvement relative to the other classes of PKC agonists tested", "setting": "[1]; whole blood, T-cell versus platelet potency", "value": "2.4- to 3 fold"}, {"measurement": "more potent for PKC-ε translocation compared with PKC-η and PKC-θ", "setting": "PKC-ε; A549-PKC-tGFP reporter cells", "value": "5- to 6 fold"}, {"measurement": "more potent for PKC-ε translocation than PKC-δ", "setting": "PKC-ε; A549-PKC-tGFP reporter cells", "value": "~200", "unit": "fold"}, {"measurement": "EC50", "setting": "PKC-ε", "value": 240, "unit": "nM"}, {"measurement": "ε selectivity, PKC-ε", "setting": "PKC-ε", "value": 1}]}, {"smiles": "Cc1ccc(C#Cc2ccc3oc(CC(C)(C)C(=O)OCC4(CO)CC(=CCC(CC(C)C)CC(C)C)C(=O)O4)cc3c2)cc1", "note": "(centres unmarked) [C-232A]", "values": [{"measurement": "rats euthanized due to severe clinical signs", "setting": "Sprague Dawley rats; 1 mg/kg, single IV infusion", "value": "1 of the 6 and 1 of 6"}, {"measurement": "histopathology", "setting": "Sprague Dawley rats; 3 mg/kg", "value": "thrombi associated with congestion and hemorrhage in the lung and brain"}, {"measurement": "outcome (moribund condition)", "setting": "Sprague Dawley rats; 3 mg/kg, single IV infusion, n = 6", "value": "euthanized within 6 hours postdose"}, {"measurement": "tolerability", "setting": "Sprague Dawley rats; 0.1 and 0.3 mg/kg, single IV infusion, 6 rats", "value": "well tolerated"}, {"measurement": "circulating platelet counts", "setting": "Sprague Dawley rats; higher doses", "value": "< 100,000 platelets/µL"}, {"measurement": "mean platelet volume", "setting": "Sprague Dawley rats; higher doses", "value": "> 15", "unit": "fL"}, {"measurement": "EC50", "setting": "PKC-η", "value": 100, "unit": "nM"}, {"measurement": "ε selectivity, PKC-η", "setting": "PKC-η", "value": 2}, {"measurement": "CD62P EC50/CD69 EC50 ratio Geomean", "setting": "[1]", "value": 1.7}, {"measurement": "EC50", "setting": "PKC-ε", "value": 58, "unit": "nM"}, {"measurement": "ε selectivity, PKC-ε", "setting": "PKC-ε", "value": 1}]}]}
